Results: PubChem BioAssay AID1996
Converted amounts (≈) assume the structure as drawn.

conditions: buffer; pH 7.4; 200.0 µM

| SMILES | solubility kinetic |
| --- | --- |
| O=S(=O)(c1ccccc1)N(CC1CO1)c1cc(Cl)ccc1Cl (stereo unspecified) | 36.4 µg/mL (≈ 102 µM) |
| CSCCNCc1c(C(=O)N2CCOCC2)nc2c(C)cccn12 | 46.1 µg/mL (≈ 132 µM) |
| CC1CCCN(C(=O)COC(=O)Cn2cnc3ccccc32)C1 (stereo unspecified) | > 47.3 µg/mL |
| Cc1ccc(N(CCO)C(=S)Nc2ccccc2)cc1 | > 43 µg/mL |
| CCCSC1=C(C#N)C(c2cccs2)CC(=O)N1 (stereo unspecified) | 33.7 µg/mL (≈ 121 µM) |
| CC(O)c1nc2ccccc2n1CCCOc1ccccc1 (stereo unspecified) | > 44.5 µg/mL |
| CC(=O)N(C1=NCCCS1)c1ccccc1Cl | > 40.3 µg/mL |
| CCCN(CCC)C(=S)NC1CC2C=CC1C2 (stereo unspecified) | > 37.9 µg/mL |
| CC(=O)c1ccc(OC(C)c2nc3ccccc3s2)cc1 (stereo unspecified) | 13.1 µg/mL (≈ 44.1 µM) |
| CCOc1ncccc1C(=O)NC(C)CCc1ccccc1 (stereo unspecified) | 41 µg/mL (≈ 137 µM) |
| Cn1ccnc1SCC(=O)NC1CCCC1 | 28.8 µg/mL (≈ 120 µM) |
| CCO.N#CC1=C(N)Oc2c(oc(CO)cc2=O)C1c1ccccc1[N+](=O)[O-] (stereo unspecified) | 45.9 µg/mL |
| COc1c(C)cc(C(=O)C2CCCN(C3CCOCC3)C2)cc1C (stereo unspecified) | > 49.7 µg/mL |
| C/C(=N\O)C(C)(C)Nc1ccccc1F | 28.1 µg/mL (≈ 134 µM) |
| O=C(COC(=O)/C=C/c1ccc(OC(F)F)cc1)NC(=O)NC1CCCCC1 | 4.5 µg/mL (≈ 11.4 µM) |
| Cc1ccc(Cl)cc1NC(=O)c1ccccn1 | 6.3 µg/mL (≈ 25.5 µM) |
| O=c1oc2ccccc2cc1-c1csc(Nc2ccc(O)cc2)n1 | 1.7 µg/mL (≈ 5.05 µM) |
| NC(=O)c1[nH]cnc1N | > 18.9 µg/mL |
| CN(C)CCN(C(=O)c1ccc2ccccc2c1)c1nc2ccc(F)cc2s1.Cl | 30 µg/mL |
| COCCOc1ccc(C(F)(F)F)cc1NC(=O)CN1C(=O)NC2(CCCc3ccccc32)C1=O (stereo unspecified) | 16.8 µg/mL (≈ 34.2 µM) |
| CC1CN(C2=N/C(=C/c3ccc4c(c3)OCO4)C(=O)N2)CC(C)O1 (stereo unspecified) | 24.7 µg/mL (≈ 75 µM) |
| Cc1ccc(N(CC(=O)N2CCCC2)S(C)(=O)=O)c(C)c1 | > 46.6 µg/mL |
| CC1Cc2ccccc2N1Cc1cccc(S(=O)(=O)N(C)C)c1 (stereo unspecified) | 9.4 µg/mL (≈ 28.4 µM) |
| N#CCSc1ccc(S(=O)(=O)N2CCOCC2)cn1 | > 44.9 µg/mL |
| CC1CCCN(S(=O)(=O)c2cccc3nonc23)C1 (stereo unspecified) | 13.2 µg/mL (≈ 46.9 µM) |

| SMILES | solubility kinetic |
| --- | --- |
| N#CC1=C(N)Oc2cc(N)ccc2C1c1ccccc1F (stereo unspecified) | 4.9 µg/mL (≈ 17.4 µM) |
| OC(CN1CCCCC1)Cn1c2ccccc2c2ccccc21 (stereo unspecified) | 45.1 µg/mL (≈ 146 µM) |
| O=C(CCc1nc(-c2ccccc2F)no1)Nc1cccnc1 | > 46.8 µg/mL |
| O=C1CN(C(=O)COc2ccccc2)c2ccccc2N1 | > 42.3 µg/mL |
| Oc1ccc2ccccc2c1C=NCc1ccccc1 | 10.8 µg/mL (≈ 41.3 µM) |
| O=S(=O)(c1ccc(Cl)cc1)N1CCCC(C(F)(F)F)C1 (stereo unspecified) | 1 µg/mL (≈ 3.05 µM) |
| O=C(Nc1cccnc1)c1cc([N+](=O)[O-])ccc1Cl | > 41.7 µg/mL |
| Cc1csc(NC(=O)C2CC(=O)N(c3ccc(C)c(C)c3)C2)n1 (stereo unspecified) | 42.4 µg/mL (≈ 129 µM) |
| CC1CCCN(Cc2csc(N)n2)C1 (stereo unspecified) | > 31.7 µg/mL |
| CCC(/C=N/NC(=O)c1ccccc1F)CC | > 35.4 µg/mL |
| CCOc1ncccc1C(=O)Nc1ccc(C)cn1 | 31.8 µg/mL (≈ 124 µM) |
| O=C(COc1ccc(S(=O)(=O)NC2CCCCC2)cc1)NC1CC1 | > 52.9 µg/mL |
| Cc1ccc(NC(=O)CNC(=O)C2CCCCC2)nc1 | > 41.3 µg/mL |
| COc1ccccc1CC(=O)Nc1cccc2ccccc12 | 2.5 µg/mL (≈ 8.58 µM) |
| O=C(Nc1ccc(N2CCCC2)cc1)c1cccc(Cl)c1 | < 0.3 µg/mL |
| CN(C(=O)CSCC(=O)Nc1ccc(Cl)cc1)C1CCCCC1 | 5.9 µg/mL (≈ 16.6 µM) |
| COC(=O)C1CCN(C(=O)c2ccc(OC)c(S(=O)(=O)N3CCCc4ccccc43)c2)CC1 | > 70.9 µg/mL |
| O=C(NC12CC3CC(CC(C3)C1)C2)c1c(Cl)cccc1Cl | < 0.7 µg/mL |
| O=C(NCc1cccc(F)c1)C1CCC(=O)N(C2CC2)C1 (stereo unspecified) | > 43.6 µg/mL |
| Cc1ccc(C(=O)NCCNC(=O)c2ccc(C)nc2)cc1 | > 44.6 µg/mL |
| O=C(Nc1cccc(S(=O)(=O)N2CCCCC2)c1)c1cncc(Br)c1 | 31.6 µg/mL (≈ 74.5 µM) |
| Cc1ccc2c(CN3CCCCC3)cc(=O)oc2c1C | 22.6 µg/mL (≈ 83.3 µM) |
| O=c1c2ccccc2nc(/C=C/c2ccc(O)cc2)n1-c1ccccc1O | 5.2 µg/mL (≈ 14.6 µM) |
| CC(=O)N1CC(=O)Nc2ccc(Cl)cc2C1c1ccccc1 (stereo unspecified) | > 47.2 µg/mL |
| COc1cccc(NCc2cc(=O)oc3cc(C)c(C(C)C)cc23)c1 | 2.8 µg/mL (≈ 8.3 µM) |

| SMILES | solubility kinetic |
| --- | --- |
| CC(=O)Nc1nonc1-c1nc2ccccc2n1C | 3.1 µg/mL (≈ 12.1 µM) |
| O=C1/C(=C/c2ccccn2)SC(=S)N1Cc1ccccc1 | < 0.3 µg/mL |
| Cc1cc(C(=O)Nc2ccccc2)oc(=O)c1 | 25.9 µg/mL (≈ 113 µM) |
| Cc1ccc(S(=O)(=O)N2CCCCC2)cc1 | 20 µg/mL (≈ 83.6 µM) |
| S=C(NCCc1ccccc1)Nc1ccccc1N1CCOCC1 | > 51.2 µg/mL |
| O=C(Cc1cccc2ccccc12)Nc1ccccc1Br | < 0.7 µg/mL |
| CCn1ncc(-c2csc(N)n2)c1C | > 31.2 µg/mL |
| COc1ccc(S(=O)(=O)Nc2cccc(F)c2)cc1C | > 44.3 µg/mL |
| CC(C)Cn1c(-c2ccc(Br)cc2)c[nH]c1=S | 5.7 µg/mL (≈ 18.3 µM) |
| COc1ccc(Cl)cc1/C=C1/C(=O)ON=C1C | 29 µg/mL (≈ 115 µM) |
| N#Cc1c(N2CCN(c3ccc(F)cc3)CC2)nc(N)c2c(N)nc3c(c12)CC(=O)N3C1CC1 | 0.8 µg/mL (≈ 1.74 µM) |
| O=[N+]([O-])c1ccc(CN2CCCCCC2)cc1 | > 35.1 µg/mL |
| CC(=O)NCc1ccc(-c2csc(-c3cccs3)n2)cc1 | 4.8 µg/mL (≈ 15.3 µM) |
| O=C(Nc1ccc(C(=O)N2CCCC2)cc1)c1ccccc1[N+](=O)[O-] | 48.2 µg/mL (≈ 142 µM) |
| Cc1ccccc1NC(=O)c1cccc(NC(=O)c2ccccc2C(=O)O)c1 | 55.8 µg/mL (≈ 149 µM) |
| Cc1cccc(C(=O)OCC(=O)N2CC(=O)Nc3ccccc32)c1C | 4.2 µg/mL (≈ 12.4 µM) |
| Cc1cccc2nc3ccccc3nc12 | 0.7 µg/mL (≈ 3.6 µM) |
| O=C1Nc2ccccc2Nc2ccc([N+](=O)[O-])cc21 | 1.1 µg/mL (≈ 4.31 µM) |
| O=C(NCCNC(=O)c1cnccn1)c1ccc(Cl)cc1 | > 45.7 µg/mL |
| Cc1c(C)n(Cc2ccccc2)c2ncnc(NCCCN(C)C)c12 | > 50.6 µg/mL |
| Cc1cc(C)cc(C(=O)NC2CC(C)(C)NC(C)(C)C2)c1 | > 43.3 µg/mL |
| CCN(C(=O)CSc1nnc(-c2ccc(F)cc2)n1C)C1CCS(=O)(=O)C1 (stereo unspecified) | > 61.9 µg/mL |
| COC(=O)C1CCN(c2cnccn2)CC1 | > 33.2 µg/mL |
| CC(C)(C)NC(=O)CN(C(=O)C1CSC(=O)C1)c1ccccc1F (stereo unspecified) | 33.3 µg/mL (≈ 94.5 µM) |
| O=C(NC1CCCC1)C1CCCN1C(=O)Oc1ccccc1 (stereo unspecified) | 41.9 µg/mL (≈ 139 µM) |

| SMILES | solubility kinetic |
| --- | --- |
| CSc1ccccc1C(=O)NCc1cccnc1 | > 38.8 µg/mL |
| COC(=O)c1ccc(C(=O)N(Cc2ccccc2)c2ccccc2)cc1 | 10.7 µg/mL (≈ 31 µM) |
| CSC(=NCc1ccco1)NC#N | 27.8 µg/mL (≈ 142 µM) |
| CC(OC(=O)CNC(=O)C1CCCCC1)C(=O)NCc1ccccc1 (stereo unspecified) | > 52 µg/mL |
| CCOC(=O)c1nc(-c2ccccc2)sc1C(C)=O | 35.9 µg/mL (≈ 130 µM) |
| O=C(Cn1c(=O)sc2ccccc21)Nc1ccc(O)cc1 | > 45 µg/mL |
| O=C(Oc1ccc2ccc(=O)oc2c1)c1ccc([N+](=O)[O-])cc1 | 0.9 µg/mL (≈ 2.89 µM) |
| Cc1cccc(C)c1NC(=O)C(=O)c1cn(C)c2ccccc12 | < 0.3 µg/mL |
| O=C(CC(c1ccccc1)c1cc(Cl)ccc1O)N1CCCC1 (stereo unspecified) | > 49.5 µg/mL |
| Cc1cccc2c1NC1(CCCC1)CC2C.Cl (stereo unspecified) | < 0.5 µg/mL |
| O=C(Nc1cccc(F)c1)Nc1ccc2c(c1)CCC2 | < 0.3 µg/mL |
| COc1ccc(OCCN2C(=O)c3cccc(N)c3C2=O)cc1 | 1.1 µg/mL (≈ 3.52 µM) |
| COc1ccc(CCC(=O)N2CCN(c3ccc(OC)cc3)CC2)cc1 | 41 µg/mL (≈ 116 µM) |
| Cc1ccc(NC(=O)c2cccc3cccnc23)cc1 | 6.7 µg/mL (≈ 25.5 µM) |
| O=C(OCC(=O)N1CCOCC1)c1ccc(O)cc1 | 31 µg/mL (≈ 117 µM) |
| COc1ccc(NS(=O)(=O)c2cc(C(=O)NNC(=O)c3ccncc3)ccc2OC)c(OC)c1 | > 73 µg/mL |
| CSc1ncccc1C(=O)OCc1ccccc1Cl | < 0.6 µg/mL |
| CC12C(=O)N(c3ccccc3)C(=O)C1C(c1ccccc1)N1CCCN12 (stereo unspecified) | > 52.1 µg/mL |
| Cc1cccc(N(Cc2ccccc2)C(=O)c2ccccc2F)c1 | 11.5 µg/mL (≈ 36 µM) |
| OCCC1CN(Cc2ccon2)CCN1Cc1ccc(F)c(F)c1 (stereo unspecified) | 40.7 µg/mL (≈ 121 µM) |
| Cc1ccc(-n2c(-c3ccc(Cl)cc3)c[n+]3c2CCC3)cc1.[Br-] | > 58.5 µg/mL |
| COc1cccc(CNC(=O)COC(=O)c2c(NC(C)=O)sc(C)c2C)c1 | 1.9 µg/mL (≈ 4.87 µM) |
| CCOC(=O)c1sc2nc(C)nc(NC3CCC(O)CC3)c2c1C (stereo unspecified) | < 0.2 µg/mL |
| COC(=O)[C@H](CCSC)NC(=O)Nc1cccc(Br)c1 | > 54.2 µg/mL |
| CCOc1ccc(OCC(=O)OC(C)C(=O)NC2CCCC2)cc1 (stereo unspecified) | > 50.3 µg/mL |

| SMILES | solubility kinetic |
| --- | --- |
| CC(C)C1Cc2nc(Cl)c(C#N)cc2CO1 (stereo unspecified) | 24.8 µg/mL (≈ 105 µM) |
| COc1ccccc1CCC(=O)Oc1ccccc1C#N | 16.6 µg/mL (≈ 59 µM) |
| Cc1cc(SCC(=O)c2ccc(Cl)cc2)nc(=O)[nH]1 | 16.5 µg/mL (≈ 56 µM) |
| COc1ccc(S(=O)(=O)N2CCN(C(=O)N(C)C)C2C)cc1 (stereo unspecified) | > 49.1 µg/mL |
| Cc1cc(Cl)c2oc(C(=O)N3CCC(O)(c4ccccc4)CC3)c(C)c2c1 | 2.2 µg/mL (≈ 5.73 µM) |
| CCc1ccc(NC(=O)CSc2ccccn2)cc1 | 33.7 µg/mL (≈ 124 µM) |
| CC(C)(CNC(=O)c1cccs1)N1CCOCC1 | > 40.3 µg/mL |
| COc1ccc(/C=C/C(=O)NC(=S)N2CCSCC2)cc1 | 11.1 µg/mL (≈ 34.4 µM) |
| Cl.O=C(CN1CCCCC1)c1ccc(F)cc1 | > 38.7 µg/mL |
| COc1ccc(CCOC(=O)c2cccc(NC(C)=O)c2)cc1 | > 47 µg/mL |
| O=C(Nc1ccccc1C(F)(F)F)N1CCCC1c1cccnc1 (stereo unspecified) | > 50.3 µg/mL |
| CCN(CC)c1ccc(N=Cc2c(O)n(CCc3ccc(OC)c(OC)c3)c(=O)[nH]c2=O)cc1 | 9.5 µg/mL (≈ 20.4 µM) |
| [Cl-].c1ccc(Cn2c[n+](Cc3ccccc3)c3ccccc32)cc1 | 42.9 µg/mL |
| O=C(Nc1cc(C(F)(F)F)ccc1N1CCOCC1)C1CCCO1 (stereo unspecified) | > 51.6 µg/mL |
| CCOc1cccc(NC(=O)/C(C#N)=C\c2cccnc2)c1 | 30.4 µg/mL (≈ 104 µM) |
| CCOC(=O)C1=C(O)CSC1=Nc1ccc(C)cc1 | > 41.6 µg/mL |
| CCN1C(=O)N(c2ccc(C(C)=O)cc2)S(=O)(=O)c2ccccc21 | 47.6 µg/mL (≈ 138 µM) |
| CCC(NC(=O)c1ccncc1)c1ccccc1 (stereo unspecified) | > 36 µg/mL |
| CCC(=O)OCCn1c(=O)c2ccccc2c2ccccc2c1=O | > 48.5 µg/mL |
| Cc1cccc(C(=O)Nc2cccc3cccnc23)c1 | 2.6 µg/mL (≈ 9.91 µM) |
| Cn1cc(C(=O)N2CCOCC2)c2ccccc21 | > 36.6 µg/mL |
